In general, IC50 refers to the concentration needed to halve the response being measured. Low readings indicate higher potency, high ones lower potency.

The assay addresses T1, MAGL (Homo sapiens, UniProt Q99685).
T1 sequence (Q99685 1-303): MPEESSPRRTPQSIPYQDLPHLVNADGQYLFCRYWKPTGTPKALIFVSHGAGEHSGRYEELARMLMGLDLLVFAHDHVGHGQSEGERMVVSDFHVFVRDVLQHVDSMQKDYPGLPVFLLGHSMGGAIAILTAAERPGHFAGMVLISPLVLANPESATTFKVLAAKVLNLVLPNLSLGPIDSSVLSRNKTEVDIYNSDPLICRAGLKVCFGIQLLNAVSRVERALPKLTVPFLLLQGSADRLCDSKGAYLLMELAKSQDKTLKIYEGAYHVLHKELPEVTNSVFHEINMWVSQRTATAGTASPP
Description: 2-AG assay (MAGL inhibitory activity, hydrolysis of 2-arachidonoylglycerol to arachidonic acid followed by mass spectrometry). As to conditions: 8 μM 2-arachidonoylglycerol, 15 min pre-incubation, 30 min incubation at RT, RapidFire MS readout. The assay is classed as biochemical. The text has this:
Compounds of formula (I) were profiled for MAGL inhibitory activity by determining the enzymatic activity by following the hydrolysis of the natural substrate 2-arachidonoylglycerol (2-AG) resulting in arachidonic acid, which can be followed by mass spectrometry. This assay is hereinafter abbreviated “2-AG assay”.
Compounds of formula (I) were profiled for MAGL inhibitory activity by determining the enzymatic activity by following the hydrolysis of the natural substrate 2-arachidonoylglycerol (2-AG) resulting in arachidonic acid, which can be followed by mass spectrometry. This assay is hereinafter abbreviated “2-AG assay”. The 2-AG assay was carried out in 384 well polypropylene assay plates. […] Compound dilutions were added to MAGL protein in assay buffer (50 mM TRIS, 1 mM EDTA, 0.01% (v/v) Tween-20, 2.5% (v/v) DMSO). After shaking, the plate was incubated for 15 min at RT. To start the reaction, 2-arachidonoylglycerol in assay buffer was added. The final concentrations in the assay was […] for MAGL protein and 8 μM 2-arachidonoylglyerol. After shaking and 30 min incubation at RT, the reaction was quenched by the addition of two assay volumes of acetonitrile containing 4 μM of d8-arachidonic acid. The amount of arachidonic acid formed was traced by an online SPE system (Agilent Rapidfire) coupled to a triple quadrupole mass spectrometer. A C18 SPE cartridge (Agilent G9205A) was used in an acetonitrile/water liquid setup. The mass spectrometer was operated in negative electrospray mode following the mass transitions 303.1→259.1 for arachidonic acid and 311.1→267.0 for d8-arachidonic acid. The activity of the compounds was calculated based on the ratio of intensities [arachidonic acid/d8-arachidonic acid].
In the case of `O=C(N1C[C@H]2CC(Oc3ccc(C(F)(F)F)cc3F)C[C@H]2C1)N1CC2(CC(n3cnc(C4CC4)n3)C2)C1` (mixture of isomers) [Example 89, [6-(3-cyclopropyl-1,2,4-triazol-1-yl)-2-azaspiro[3.3]heptan-2-yl]-[rac-(3aS,6aR)-5-[2-fluoro-4-(trifluoromethyl)phenoxy]-3,3a,4,5,6,6a-hexahydro-1H-cyclopenta[c]pyrrol-2-yl]methanone], the IC50 came out at 2.5 nM. The value for `O=C(N1C[C@H]2CC(Oc3ccc(F)cc3Cl)C[C@H]2C1)N1CC2(CC(n3cnc(C4CC4)c3)C2)C1` (mixture of isomers) [Example 91, [6-(4-cyclopropylimidazol-1-yl)-2-azaspiro[3.3]heptan-2-yl]-[rac-(3aR,6aS)-5-(2-chloro-4-fluoro-phenoxy)-3,3a,4,5,6,6a-hexahydro-1H-cyclopenta[c]pyrrol-2-yl]methanone] was 6.3 nM; that for `O=C(N1C[C@H]2CC(Oc3ccc(F)cc3Cl)C[C@H]2C1)N1CC2(CC(n3cnc(C4CC4)n3)C2)C1` (mixture of isomers) [Example 93, [6-(3-cyclopropyl-1,2,4-triazol-1-yl)-2-azaspiro[3.3]heptan-2-yl]-[rac-(3aR,6aS)-5-(2-chloro-4-fluoro-phenoxy)-3,3a,4,5,6,6a-hexahydro-1H-cyclopenta[c]pyrrol-2-yl]methanone] was 1 nM.

The compound `O=C(N1C[C@H]2CC(Oc3ccc(F)c(Cl)c3)C[C@H]2C1)N1CC2(CC(n3cnc(C4CC4)n3)C2)C1` (mixture of isomers) [Example 126, [6-(3-cyclopropyl-1,2,4-triazol-1-yl)-2-azaspiro[3.3]heptan-2-yl]-[rac-(3aS,6aR)-5-(4-fluoro-3-chloro-phenoxy)-3,3a,4,5,6,6a-hexahydro-1H-cyclopenta[c]pyrrol-2-yl]methanone] displayed an IC50 of 1.5 nM. With `O=C(N1C[C@H]2CC(Oc3ccc(F)cc3Cl)C[C@H]2C1)N1CC2(CC(n3cnnc3C3CC3)C2)C1` (mixture of isomers) [Example 178, [6-(3-cyclopropyl-1,2,4-triazol-4-yl)-2-azaspiro[3.3]heptan-2-yl]−[rac-(3aS,6aR)-5-(2-chloro-4-fluoro-phenoxy)-3,3a,4,5,6,6a-hexahydro-1H-cyclopenta[c]pyrrol-2-yl]methanone], 156 nM corresponded to half-maximal inhibition (IC50). `O=C(N1CC(c2ccc(N3CCC(O)(C(F)(F)F)C3)nc2)C1)N1CC2(CC(n3cnc(C4CC4)n3)C2)C1` (single isomer, unassigned) [Example 214] displayed a concentration for half-maximal inhibition (IC50) of 1.6 nM. Consider `NC(=O)C(c1ccc(F)cc1)C1CCN(C(=O)N2CC3(CC(n4cnc(C5CC5)n4)C3)C2)CC1` (single isomer, unassigned) [Example 291], for which 76.2 nM corresponded to half-maximal inhibition (IC50). `NC(=O)C(c1ccc(F)cc1)C1CCN(C(=O)N2CC3(CC(n4cnc(C5CC5)n4)C3)C2)CC1` (single isomer, unassigned) [Example 301] had an IC50 of 97.3 nM. The value for `N=S(=O)(c1cccc(CC2CC3(C2)CN(C(=O)N2CC4(CC(n5cnc(C6(O)CC6)n5)C4)C2)C3)c1)C(F)(F)F` (single isomer, unassigned) [Example 406, [6-[3-(1-hydroxycyclopropyl)-1,2,4-triazol-1-yl]-2-azaspiro[3.3]heptan-2-yl]-[6-[[3-(trifluoromethyl-sulfonimidoyl)phenyl]methyl]-2-azaspiro[3.3]heptan-2-yl]methanone] was 1.63 nM. Compound `N=S(=O)(c1cccc(CC2CC3(C2)CN(C(=O)N2CC4(CC(n5cnc(C6(O)CC6)n5)C4)C2)C3)c1)C(F)(F)F` (single isomer, unassigned) [Example 407, [6-[3-(1-hydroxycyclopropyl)-1,2,4-triazol-1-yl]-2-azaspiro[3.3]heptan-2-yl]-[6-[[3-(trifluoromethyl-sulfonimidoyl)phenyl]methyl]-2-azaspiro[3.3]heptan-2-yl]methanone] returned an IC50 of 0.25 nM. `CS(=N)(=O)c1cccc(CC2CC3(C2)CN(C(=O)N2CC4(CC(n5cnc(C6CC6)n5)C4)C2)C3)c1` (single isomer, unassigned) [Example 440, [6-(3-cyclopropyl-1,2,4-triazol-1-yl)-2-azaspiro[3.3]heptan-2-yl]-[6-[[3-(methylsulfonimidoyl)phenyl]methyl]-2-azaspiro[3.3]heptan-2-yl]methanone] displayed an IC50 of 1.88 nM. The value for `CS(=N)(=O)c1cccc(CC2CC3(C2)CN(C(=O)N2CC4(CC(n5cnc(C6CC6)n5)C4)C2)C3)c1` (single isomer, unassigned) [Example 441, [6-(3-cyclopropyl-1,2,4-triazol-1-yl)-2-azaspiro[3.3]heptan-2-yl]-[6-[[3-(methylsulfonimidoyl)phenyl]methyl]-2-azaspiro[3.3]heptan-2-yl]methanone] was 1.97 nM; that for `CS(=N)(=O)c1ccc(CC2CC3(C2)CN(C(=O)N2CC4(CC(n5cnc(C6CC6)n5)C4)C2)C3)cc1` (single isomer, unassigned) [Example 442, [6-(3-cyclopropyl-1,2,4-triazol-1-yl)-2-azaspiro[3.3]heptan-2-yl]-[6-[[4-(methylsulfonimidoyl)phenyl]methyl]-2-azaspiro[3.3]heptan-2-yl]methanone] was 2.22 nM. In turn, `CS(=N)(=O)c1ccc(CC2CC3(C2)CN(C(=O)N2CC4(CC(n5cnc(C6CC6)n5)C4)C2)C3)cc1` (single isomer, unassigned) [Example 443, [6-(3-cyclopropyl-1,2,4-triazol-1-yl)-2-azaspiro[3.3]heptan-2-yl]-[6-[[4-(methylsulfonimidoyl)phenyl]methyl]-2-azaspiro[3.3]heptan-2-yl]methanone] showed an IC50 of 4.31 nM. The compound `NC(=O)[C@H]1CC(F)(F)CCN1c1ccc(C2CN(C(=O)N3CC4(CC(n5cnc(C6CC6)n5)C4)C3)C2)cc1` (single isomer, unassigned) [Example 493] registered an IC50 of 1.28 nM. In turn, `NC(=O)[C@H]1CC(F)(F)CCN1c1ccc(C2CN(C(=O)N3CC4(CC(n5cnc(C6CC6)n5)C4)C3)C2)cc1` (single isomer, unassigned) [Example 494] had an IC50 of 2.34 nM. On to `O=C(N1CC2(CC(n3cnc(C4(O)CC4)n3)C2)C1)N1CC2(CC[C@H](Cc3ncc(F)cc3F)C2)C1` (stereo in doubt) [Example 351, [6-[3-(1-hydroxycyclopropyl)-1,2,4-triazol-1-yl]-2-azaspiro[3.3]heptan-2-yl]-[(6S)-6-[(3,5-difluoro-2-pyridyl)methyl]-2-azaspiro[3.4]octan-2-yl]methanone], for which the IC50 is 24.7 nM.

Turning to `O=C(N1CC2(CC(n3cnc(C4(O)CC4)n3)C2)C1)N1CC2(CC[C@@H](Cc3ncc(F)cc3F)C2)C1` (stereo in doubt) [Example 352, [6-[3-(1-hydroxycyclopropyl)-1,2,4-triazol-1-yl]-2-azaspiro[3.3]heptan-2-yl]-[(6R)-6-[(3,5-difluoro-2-pyridyl)methyl]-2-azaspiro[3.4]octan-2-yl]methanone], the IC50 stood at 4.36 nM. As for `O=C(N1CC(c2ccc(N3CCC(C(F)(F)F)C3)nc2)C1)N1CC2(CC(n3cnc(C4CC4)n3)C2)C1` (stereo in doubt) [Example 480, [6-(3-cyclopropyl-1,2,4-triazol-1-yl)-2-azaspiro[3.3]heptan-2-yl]-[3-[6-[(3S)-3-(trifluoromethyl)pyrrolidin-1-yl]-3-pyridyl]azetidin-1-yl]methanone], it took 0.49 nM to reach half-maximal inhibition (IC50). The value for `O=C(N1CC(c2ccc(C3(C(F)(F)F)CC3)cc2)C1)N1CC2(CC(n3cnc(C4CC4)n3)C2)C1` [Example 1, (6-(3-cyclopropyl-1H-1,2,4-triazol-1-yl)-2-azaspiro[3.3]heptan-2-yl)(3-(4-(1-(trifluoromethyl)cyclopropyl)phenyl)azetidin-1-yl)methanone] was 0.1 nM.

Turning to `O=C(N1CC(c2nc(CC3(C(F)(F)F)CC3)no2)C1)N1CC2(CC(n3cnc(C4CC4)n3)C2)C1` [Example 2, [6-(3-cyclopropyl-1,2,4-triazol-1-yl)-2-azaspiro[3.3]heptan-2-yl]-[3-[3-[[1-(trifluoromethyl)cyclo-propyl]methyl]-1,2,4-oxadiazol-5-yl]azetidin-1-yl]methanone], the IC50 is 25.7 nM.

Regarding `CC(C)(C)c1nc(-c2ccc(C(=O)N3CC4(CC(n5cnc(C6CC6)n5)C4)C3)cc2)no1` [Example 3, [4-(5-tert-butyl-1,2,4-oxadiazol-3-yl)phenyl]−[6-(3-cyclopropyl-1,2,4-triazol-1-yl)-2-azaspiro[3.3]heptan-2-yl]methanone], half-maximal inhibition (IC50) required 5.1 nM.

`CC(C)(C)c1nc(-c2ccc(C(=O)N3CC4(CC(n5cnc(C(F)(F)F)n5)C4)C3)cc2)no1` [Example 4, (4-(5-(tert-butyl)-1,2,4-oxadiazol-3-yl)phenyl)(6-(3-(trifluoromethyl)-1H-1,2,4-triazol-1-yl)-2-azaspiro[3.3]heptan-2-yl)methanone] registered a 50% inhibitory concentration (IC50) of 11.4 nM.
